Laboratory results as given in article PMC5469758, “Identification of an in vivo orally active dual-binding protein-protein interaction inhibitor targeting TNFα through combined in silico/in vitro/in vivo screening” (Scientific Reports, 2017).
Like-named read-outs stand apart in the source and are kept apart here.

Experiments:
TNFα [1] = target: T1, TNFα (Homo sapiens, UniProt P01375); test: Surface Acoustic Wave (SAW) biosensor gravimetric measurement of dissociation constants; assay type: binding; conditions: for Kd: two-site binding model, room temperature
T1 construct: purchased R&D Systems
Protocol: Gravimetric measurements were performed using surface acoustic wave (SAW) sensors. TNFα solutions were prepared by diluting 10 µg of lyophilized TNFα in 1 ml of PBS. They were kept in the freezer (at −18 °C) and put at room temperature just before their further grafting onto the gold surface area of the SAW sensor.
Phase shift variations (ΔΦ) versus compound concentration (C) were fitted using equation 1 ΔΦ=Φsat×C/Kd+C where Φsat represents the maximum sensor’s response to the compound binding and Kd represents the equilibrium dissociation constant.
In the case of a two-site binding, equation 2 was used for fitting:2 ΔΦ=Φsat,1×C/Kd1+C+Φsat,2×C/Kd2+C
where Φsat1 and Φsat2 are related to the maximum sensor’s response for each binding site and Kd1 and Kd2 are their respective dissociation constants.

TNFα [2] = target: T1, TNFα; test: Intrinsic tryptophan fluorescence of TNFα; assay type: binding; conditions: 0.5 μM TNFα; 20–100 µM range
Protocol: All samples were brought to 10 mM phosphate buffer, 0.05% Tween20, 1% DMSO. Fluorescence readings were made with a Quantamaster QM4CW spectrofluorimeter (Photon Technology International), by exciting TNFα at 290 nm and measuring the emission peaks at 322 nm. Compound 1 inner filter effects were corrected using absorbance measurements of compound alone solutions at 290 nm and 322 nm.

TNFα/TNFRI = target: T2, TNFα/TNFRI (Homo sapiens, UniProt P01375); test: TNFα-TNFRI binding ELISA; assay type: biochemical
T2 construct: purchased R&D Systems
Protocol: (§1) Microtiter plates were coated with 12.5 ng of TNFRI or TNFRII in 125 μl of PBS per well at 37 °C. The wells were washed, blocked with PBS/BSA 2% for three hours and washed as before. Serial dilutions of compounds were mixed with a fixed quantity of TNFα in PBS/BSA 1% and incubated two hours at 37 °C. 125 μl of the mix were added to the wells and plates were incubated overnight at 4 °C. Wells were washed incubated with 37.5 ng of TNFα biotinylated antibody in 125 μl of PBS/BSA 1% for two hours at 37 °C. Wells were washed and incubated with avidin-HRP (1:500) in 125 μl of PBS/BSA 1% for 30 minutes at 37 °C, 5% CO2. After washing, TMB solution was added to wells, quenched with 63 μl of 1 M H2SO4 solution. Absorbance was measured at 450 nm.

TNFα/TNFRII = target: T3, TNFα/TNFRII (Homo sapiens, UniProt P01375); test: TNFα-TNFRII binding ELISA; assay type: biochemical
T3 construct: purchased R&D Systems
Protocol: as §1

[3] = tested on: human TNFα induced apoptosis on the L929 cell line; test: Neutralization of human TNFα induced apoptosis in L929 cells (MTT); assay type: cell-based; conditions: human TNFα, read-out: IC50, inhibition of TNFα induced apoptosis
Protocol: (§2) 80% confluent L929 cells were plated in flat bottom plates at 4 × 10^5 cells per well in 100 μl of DMEM medium containing 10% FBS, 2 mM L-Glutamine, 100 U/ml Penicillin − 100 μg/ml Streptomycin and incubated for one night at 37 °C, 5% CO2. TNFα or TNFβ (150 pg/ml), Actinomycin D (4 μg/ml) and the compounds at different concentrations (ranging from 100 μM to 0.8 μM) were mixed in 150 μl DMEM medium 1% FBS, 2 mM L-Glutamine, 100 U/ml Penicillin−100 μg/ml Streptomycin in U-bottom plates. After two hours incubation at 37 °C, 5% CO2, 100 μl of the mix was added to the plated cells and incubated at 37 °C, 5% CO2 for 24 hours. Supernatants were discarded and 100 μl of MTT at 0.5 mg/ml were added to wells. After two hours, supernatants were discarded and 200 μl of DMSO were then added. Plates were read at 570 nm with a spectrophotometer providing the optical density (OD) of each well. The percentage of neutralization of TNFα by a compound was calculated using equation 3:3 %Neutra=ODcompound−ODTNFα/ODcells−ODTNFα×100
(§3) An IC50 could be computed from the percentage of neutralization for each compound.

[4] = tested on: TNFα induced NF-κB activation in HEK cells; test: HEK-Blue TNFα NF-κB secreted embryonic alkaline phosphatase reporter assay; assay type: cell-based, human; conditions: Homo sapiens, HEK293; HEK cell line expressing TNFRI; read-out: IC50, TNFα signaling NF-κB reporter
Protocol: 80% confluent HEK-Blue™ TNFα were plated in flat bottom plates at 5 × 10^4 per well in 100 μl of DMEM containing 2 mM L-Glutamine, 100 U/ml Penicillin − 100 μg/ml Streptomycin and incubated at 37 °C, 5% CO2. Serial dilutions of compounds (ranging from 100 μM to 0.8 μM) were mixed with 400 pg/ml of human TNFα in DMEM containing 2% of FBS, 2 mM L-Glutamine, 100 U/ml Penicillin−100 μg/ml Streptomycin in U-bottom plates. After two hours of incubation at 37 °C, 5% CO2, 100 μl of the mix was added to the plated cells and incubated 24 hours at 37 °C, 5% CO2. 20 μl of supernatants were incubated for 3 hours with 180 μl of QUANTI-Blue™ to reveal secretion of phosphatase alcaline and plates were read at 620 nm with a spectrophotometer providing the optical density (OD).

[5] = tested on: TNFβ induced apoptosis in L929 cell line; test: Neutralization of TNFβ induced apoptosis in L929 cells (MTT); assay type: cell-based
Protocol: as §2, §3

[6] = tested on: murine TNFα-induced apoptosis on L929 cells; test: Neutralization of murine TNFα induced apoptosis in L929 cells; assay type: cell-based; conditions: Mus musculus
Protocol: as §2, §3

[7] = tested on: CXCL1 secretion by L929 cells; test: CXCL1 secretion in L929 supernatants after TNFα stimulation (ELISA); assay type: cell-based, murine; conditions: TNFα (5 ng/ml)
Protocol: Cells were plated at 2.5 × 10^5 cells/well in 24-well plates and treated as indicated. Eight hours later, supernatants were recovered and kept at −20 °C for later use. The concentration of murine CXCL1 was measured in supernatants with a dosage ELISA kit obtained from R&D Systems (Lille, France) according to the manufacter’s procedures.

caspase 3 activation = test: Caspase-Glo 3 activation assay; assay type: cell-based; conditions: dose dependent
Protocol: (§4) Caspases 3 and 8 activation was determined using Caspase-Glo® 3 and Caspase-Glo-8® assays kits (Promega) according to the manufacter’s procedures. After 8 hours of treatment, plates were equilibrated at room temperature. 100 μl Caspase-Glo 3® and Caspase-Glo 8® reagent were added to each well. Luminescence was read on a FLUOstar OPTIMA reader.

caspase 8 activation = test: Caspase-Glo 8 activation assay; assay type: cell-based; conditions: dose dependent
Protocol: as §4

[8] = tested on: IκB kinases (IKK), JNK1, p38 and Syk, caspase 3, caspase 8; test: Direct inhibition of kinases and caspases related to the TNFα pathway (CEREP/Eurofins panel); assay type: biochemical; conditions: at 1 µM
Protocol: (§5) Kinases and caspases activities in presence of 1 µM of compound 1 were carried out by CEREP/Eurofins (Celle-Lévescault). The activity of compound 1 on the different kinases and caspases was compared to control values. Data are expressed as percentages of inhibition of control values.

IKKα = target: T4, IKKα (Homo sapiens, UniProt O15111); test: CEREP/Eurofins kinase inhibition, IKKα; assay type: biochemical; conditions: read-out: % Inhibition of Control Values
T4 construct: purchased CEREP/Eurofins
Protocol: as §5

IKKβ = target: T5, IKKβ (Homo sapiens, UniProt O14920); test: CEREP/Eurofins kinase inhibition, IKKβ; assay type: biochemical; conditions: read-out: % Inhibition of Control Values
T5 construct: purchased CEREP/Eurofins
Protocol: as §5

IKKε = target: T6, IKKε (Homo sapiens, UniProt Q14164); test: CEREP/Eurofins kinase inhibition, IKKε; assay type: biochemical; conditions: read-out: % Inhibition of Control Values
T6 construct: purchased CEREP/Eurofins
Protocol: as §5

JNK1 = target: T7, JNK1 (Homo sapiens, UniProt P45983); test: CEREP/Eurofins kinase inhibition, JNK1; assay type: biochemical; conditions: JNK1, 1 μM; read-out: % Inhibition of Control Values
T7 construct: purchased CEREP/Eurofins
Protocol: as §5

p38α kinase = target: T8, p38α kinase (Homo sapiens, UniProt Q16539); test: CEREP/Eurofins kinase inhibition, p38α; assay type: biochemical; conditions: read-out: % Inhibition of Control Values
T8 construct: purchased CEREP/Eurofins
Protocol: as §5

p38γ kinase = target: T9, p38γ kinase (Homo sapiens, UniProt P53778); test: CEREP/Eurofins kinase inhibition, p38γ; assay type: biochemical; conditions: read-out: % Inhibition of Control Values
T9 construct: purchased CEREP/Eurofins
Protocol: as §5

p38δ kinase = target: T10, p38δ kinase (Homo sapiens, UniProt O15264); test: CEREP/Eurofins kinase inhibition, p38δ; assay type: biochemical; conditions: read-out: % Inhibition of Control Values
T10 construct: purchased CEREP/Eurofins
Protocol: as §5

Syk = target: T11, Syk (Homo sapiens, UniProt P43405); test: CEREP/Eurofins kinase inhibition, Syk; assay type: biochemical; conditions: read-out: % Inhibition of Control Values
T11 construct: purchased CEREP/Eurofins
Protocol: as §5

Caspase 3 = target: T12, Caspase 3 (Homo sapiens, UniProt P42574); test: CEREP/Eurofins caspase inhibition, Caspase 3; assay type: biochemical; conditions: Caspase 3, 1 μM; read-out: % Inhibition of Control Values
T12 construct: purchased CEREP/Eurofins
Protocol: as §5

Caspase 8 = target: T13, Caspase 8 (Homo sapiens, UniProt Q14790); test: CEREP/Eurofins caspase inhibition, Caspase 8; assay type: biochemical; conditions: Caspase 8, 1 μM; read-out: % Inhibition of Control Values
T13 construct: purchased CEREP/Eurofins
Protocol: as §5

Balb/C mice = test: LPS/D-Galactosamine induced lethal shock (TNFα-dependent hepatic shock model); assay type: in vivo
Protocol: 7 weeks-old Balb/C mice were force-fed with 100 μl of a solution of DMSO containing various doses of compound 1 (5 mg down to 0.5 mg) eight hours before receiving an intraperitoneal injection of 200 μl of PBS containing 0.1 μg of LPS and 20 mg of D-Galactosamine. A control group (DMSO) was force-fed with 100 μl of a solution of DMSO alone eight hours before to be injected with 200 μl of LPS/D-Galactosamine solution. Mice survival was monitored for 48 hours after the injection of LPS/D-Galactosamine.
7 weeks-old Balb/C mice were forced-fed with a solution of DMSO containing 5 mg of compound 1 eight hours before receiving an intraperitoneal injection of 200 μl of PBS containing 0.1 μg of LPS and 20 mg of D-Galactosamine. Eight hours after LPS/D-Galactosamine injection, mice were sacrificed by cervical dislocation and livers were harvested, fixed in 4% formalin and embedded in paraffin. […] Slides were scanned with a slide scanner (Perkin Elmer) and analyzed with Pannoramic viewer (3D HISTECH).
7 weeks-old Balb/C mice were forced-fed with a solution of DMSO containing 5 mg of compound 1 eight hours before receiving an intraperitoneal injection of 200 μl of PBS containing 0.1 μg of LPS and 20 mg of D-Galactosamine. Three hours after LPS/D-Galactosamine injection, mice were anesthetized with ketamine/xylazine to recover blood by cardiac puncture. Sera were kept at −80 °C until assay.
TNFα in serum was quantified using U-CyTech biosciences kits (Utrecht, The Netherlands) according to manufacturer’s procedures.
7 weeks-old Balb/C mice were forced-fed with a solution of DMSO containing 5 mg of compound 1 eight hours before receiving an intraperitoneal injection of 200 μl of PBS containing 0.1 μg of LPS and 20 mg of D-Galactosamine. Eight hours after, mice were anesthetized by an injection of ketamine/xylazine to recover blood by cardiac puncture. Sera were kept at −80 °C until assay. Quantification of AST/ALT was performed using Architec ci 8200 analyser (Abbott) with reagent kits from Abbott.

[9] = Solubility in aqueous solvents; assay type: physicochemical
Bioavailability = assay type: in vivo; conditions: mouse, oral
[10] = livers eight hours after LPS/D-Galactosamine

T1 sequence (P01375 77-233 limits assumed): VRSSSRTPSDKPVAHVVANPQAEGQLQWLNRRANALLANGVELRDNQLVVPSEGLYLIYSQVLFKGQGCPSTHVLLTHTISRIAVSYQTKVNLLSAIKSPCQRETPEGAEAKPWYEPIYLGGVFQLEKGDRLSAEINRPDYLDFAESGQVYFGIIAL
T4 sequence (O15111 whole entry): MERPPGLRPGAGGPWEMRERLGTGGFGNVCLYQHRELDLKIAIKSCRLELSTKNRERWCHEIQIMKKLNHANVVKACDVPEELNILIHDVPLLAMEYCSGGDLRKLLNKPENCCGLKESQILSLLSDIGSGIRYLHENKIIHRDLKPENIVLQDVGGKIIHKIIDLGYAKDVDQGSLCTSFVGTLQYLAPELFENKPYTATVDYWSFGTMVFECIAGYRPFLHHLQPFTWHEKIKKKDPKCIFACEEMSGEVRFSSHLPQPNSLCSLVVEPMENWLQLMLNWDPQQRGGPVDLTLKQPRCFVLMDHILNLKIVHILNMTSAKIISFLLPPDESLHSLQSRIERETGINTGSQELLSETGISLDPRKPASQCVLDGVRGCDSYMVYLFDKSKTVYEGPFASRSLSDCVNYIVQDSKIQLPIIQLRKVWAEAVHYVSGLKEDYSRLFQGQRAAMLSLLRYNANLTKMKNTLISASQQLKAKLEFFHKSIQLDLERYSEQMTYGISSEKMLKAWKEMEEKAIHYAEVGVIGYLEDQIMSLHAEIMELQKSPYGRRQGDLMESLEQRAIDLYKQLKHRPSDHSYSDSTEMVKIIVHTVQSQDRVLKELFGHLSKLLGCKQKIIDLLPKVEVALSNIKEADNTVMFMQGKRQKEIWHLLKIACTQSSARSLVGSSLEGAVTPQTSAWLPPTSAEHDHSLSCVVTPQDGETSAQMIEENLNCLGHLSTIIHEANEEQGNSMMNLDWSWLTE
T12 sequence (P42574 29-175 limits assumed): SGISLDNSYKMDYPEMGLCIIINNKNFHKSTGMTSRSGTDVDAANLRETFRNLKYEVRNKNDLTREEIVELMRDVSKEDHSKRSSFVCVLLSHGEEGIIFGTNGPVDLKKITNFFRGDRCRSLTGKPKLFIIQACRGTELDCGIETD
T6 sequence (Q14164 whole entry): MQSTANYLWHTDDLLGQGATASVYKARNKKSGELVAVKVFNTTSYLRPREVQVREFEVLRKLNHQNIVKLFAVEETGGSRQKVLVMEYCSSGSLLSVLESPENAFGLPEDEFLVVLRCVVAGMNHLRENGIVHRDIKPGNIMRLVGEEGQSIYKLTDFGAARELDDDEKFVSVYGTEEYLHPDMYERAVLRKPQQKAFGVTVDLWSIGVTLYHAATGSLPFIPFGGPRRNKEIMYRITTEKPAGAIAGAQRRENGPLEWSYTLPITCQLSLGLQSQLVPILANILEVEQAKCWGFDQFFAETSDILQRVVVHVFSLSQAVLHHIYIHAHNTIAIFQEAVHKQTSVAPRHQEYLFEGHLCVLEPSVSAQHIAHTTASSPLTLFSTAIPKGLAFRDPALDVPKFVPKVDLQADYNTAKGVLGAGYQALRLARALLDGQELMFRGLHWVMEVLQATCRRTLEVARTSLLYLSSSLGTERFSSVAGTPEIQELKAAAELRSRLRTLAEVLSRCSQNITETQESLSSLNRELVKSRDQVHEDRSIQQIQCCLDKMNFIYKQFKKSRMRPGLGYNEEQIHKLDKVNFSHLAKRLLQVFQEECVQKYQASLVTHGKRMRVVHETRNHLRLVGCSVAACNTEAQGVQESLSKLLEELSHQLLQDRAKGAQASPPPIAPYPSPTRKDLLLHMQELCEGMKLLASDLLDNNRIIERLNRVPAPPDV
T9 sequence (P53778 whole entry): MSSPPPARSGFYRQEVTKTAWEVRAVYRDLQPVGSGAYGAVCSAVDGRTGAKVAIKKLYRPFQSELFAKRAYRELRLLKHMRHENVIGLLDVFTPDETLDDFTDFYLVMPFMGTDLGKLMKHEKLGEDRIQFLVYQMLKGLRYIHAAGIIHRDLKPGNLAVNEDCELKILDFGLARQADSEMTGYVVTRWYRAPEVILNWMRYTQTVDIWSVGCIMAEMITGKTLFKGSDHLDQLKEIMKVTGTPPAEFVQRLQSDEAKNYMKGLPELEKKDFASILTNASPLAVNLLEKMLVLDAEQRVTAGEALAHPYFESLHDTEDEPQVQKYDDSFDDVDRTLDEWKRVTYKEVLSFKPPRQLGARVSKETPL
T13 sequence (Q14790 217-374 limits assumed): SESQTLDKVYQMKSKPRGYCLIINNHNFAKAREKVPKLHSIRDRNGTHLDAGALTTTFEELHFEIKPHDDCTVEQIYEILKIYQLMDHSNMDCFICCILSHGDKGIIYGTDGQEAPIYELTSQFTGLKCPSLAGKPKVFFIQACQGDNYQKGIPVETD
T10 sequence (O15264 whole entry): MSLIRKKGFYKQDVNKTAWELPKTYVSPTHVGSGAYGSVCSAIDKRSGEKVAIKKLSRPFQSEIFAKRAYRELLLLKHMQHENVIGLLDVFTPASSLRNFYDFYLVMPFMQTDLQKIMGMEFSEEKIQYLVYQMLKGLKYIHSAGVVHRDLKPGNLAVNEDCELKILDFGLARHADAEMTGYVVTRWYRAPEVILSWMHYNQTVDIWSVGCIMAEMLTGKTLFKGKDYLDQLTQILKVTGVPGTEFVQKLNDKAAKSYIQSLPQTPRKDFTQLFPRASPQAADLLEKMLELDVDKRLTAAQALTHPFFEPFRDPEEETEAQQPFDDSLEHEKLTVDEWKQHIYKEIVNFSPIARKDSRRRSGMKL
T3 sequence (P01375 77-233 limits assumed): as the sequence (P01375 77-233 limits assumed) above
T2 sequence (P01375 77-233 limits assumed): as above
T5 sequence (O14920 whole entry): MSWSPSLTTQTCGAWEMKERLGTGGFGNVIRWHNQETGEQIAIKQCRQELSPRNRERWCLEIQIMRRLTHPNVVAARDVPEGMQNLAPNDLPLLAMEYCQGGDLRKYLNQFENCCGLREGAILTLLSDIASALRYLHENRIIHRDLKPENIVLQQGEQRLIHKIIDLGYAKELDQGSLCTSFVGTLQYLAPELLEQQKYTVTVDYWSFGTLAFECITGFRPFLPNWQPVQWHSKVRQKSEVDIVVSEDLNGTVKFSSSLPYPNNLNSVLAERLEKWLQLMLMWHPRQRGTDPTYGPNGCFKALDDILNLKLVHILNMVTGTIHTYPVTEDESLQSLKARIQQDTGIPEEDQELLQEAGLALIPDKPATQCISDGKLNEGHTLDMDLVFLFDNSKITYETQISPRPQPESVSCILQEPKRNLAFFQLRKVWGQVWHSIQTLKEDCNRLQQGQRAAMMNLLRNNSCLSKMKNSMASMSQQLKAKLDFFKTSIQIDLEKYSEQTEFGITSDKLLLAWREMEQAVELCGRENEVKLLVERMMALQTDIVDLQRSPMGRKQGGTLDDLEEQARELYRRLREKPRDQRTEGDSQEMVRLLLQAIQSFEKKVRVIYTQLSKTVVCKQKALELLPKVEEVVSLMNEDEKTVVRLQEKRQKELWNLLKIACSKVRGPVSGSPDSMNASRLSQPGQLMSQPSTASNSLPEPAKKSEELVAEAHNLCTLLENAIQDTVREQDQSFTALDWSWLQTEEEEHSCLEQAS
T7 sequence (P45983 whole entry): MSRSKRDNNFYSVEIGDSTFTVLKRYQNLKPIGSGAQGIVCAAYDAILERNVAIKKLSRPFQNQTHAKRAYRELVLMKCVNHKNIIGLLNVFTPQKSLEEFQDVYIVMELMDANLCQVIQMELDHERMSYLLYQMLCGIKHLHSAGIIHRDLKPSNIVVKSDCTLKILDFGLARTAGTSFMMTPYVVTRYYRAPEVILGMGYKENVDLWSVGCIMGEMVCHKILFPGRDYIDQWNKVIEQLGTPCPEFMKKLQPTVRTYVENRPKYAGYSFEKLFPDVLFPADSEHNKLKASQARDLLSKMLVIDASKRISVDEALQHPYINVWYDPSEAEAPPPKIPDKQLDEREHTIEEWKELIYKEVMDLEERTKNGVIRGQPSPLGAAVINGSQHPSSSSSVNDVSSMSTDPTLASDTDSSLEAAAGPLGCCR
T8 sequence (Q16539 whole entry): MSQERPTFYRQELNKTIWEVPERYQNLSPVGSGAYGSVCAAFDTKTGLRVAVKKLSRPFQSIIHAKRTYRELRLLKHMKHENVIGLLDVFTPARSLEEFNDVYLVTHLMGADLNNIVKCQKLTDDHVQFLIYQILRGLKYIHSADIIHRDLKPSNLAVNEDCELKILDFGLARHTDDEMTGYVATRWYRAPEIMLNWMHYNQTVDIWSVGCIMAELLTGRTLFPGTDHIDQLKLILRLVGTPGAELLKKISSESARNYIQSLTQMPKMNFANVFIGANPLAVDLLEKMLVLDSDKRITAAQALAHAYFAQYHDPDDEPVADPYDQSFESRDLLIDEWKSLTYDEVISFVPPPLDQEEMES

In the case of Cc1c(Cl)cccc1N(CC(=O)N1CCN(Cc2ccccc2)CC1)S(=O)(=O)c1ccccc1 [Compound 1], the “ligand efficiency LE1” value (TNFα [1]; from Kd1) is reported as 0.22, the “ligand efficiency LE2” value (TNFα [1]; from Kd2) is reported as 0.37 and the Kd (TNFα [1]; read-out: Kd1 of TNFα/compound 1 complex) is reported as 4.79 ± 1.12 µM. For the same molecule, the Kd (TNFα [1]; read-out: Kd2 of TNFα/compound 1 complex) was 0.00231 ± 0.00103 µM, the “modification of intrinsic tryptophan fluorescence of TNFα” value (TNFα [2]) was “dose dependent manner” and the IC50 (TNFα/TNFRI) was 37 µM. For the same molecule, the IC50 (TNFα/TNFRII) was 31 µM, the IC50 ([3]; L929, L929 cell line) was 12 µM and the IC50 ([3]; L929 cell line) was about 10 µM. It also gave an IC50 [4] of 10 µM, a maximal survival ([5]; TNFβ, at 100 μM) of 40% and an IC50 ([5]; read-out: IC50, inhibition of TNFβ induced apoptosis) of 28 µM. For the same molecule, the IC50 [6] was about 10 µM, the CXCL1 in supernatants [7] was “significantly less CXCL1” and the “activation of caspase 3” value (caspase 3 activation) was “blocked the activation”. For the same molecule, the “activation of caspase 8” value (caspase 8 activation) was “blocked the activation”, the “effect on kinases and caspases related to the TNFα pathway” value [8] was “no significant effect” and the inhibition at 1 µM (IKKα) was 3.2%. The inhibition at 1 µM (IKKβ) was 10.3%, the inhibition at 1 µM (IKKε) was 7.3% and the inhibition at 1 µM (JNK1) was -3%. It also gave an inhibition at 1 µM (p38α kinase) of 1.5%, an inhibition at 1 µM (p38γ kinase) of -11% and an inhibition at 1 µM (p38δ kinase) of -1.8%. The inhibition at 1 µM (Syk) was -6.9%, the inhibition at 1 µM (Caspase 3) was -1.8% and the inhibition at 1 µM (Caspase 8) was -7.3%. For the same molecule, the “expression of cleaved caspase 3 in liver (immunohistochemistry)” value (Balb/C mice; [10]) was “reduced expression of cleaved caspase 3”, the “liver damage and hemorrhage (H&E histopathology)” value (Balb/C mice; [10]) was “reduced liver damage and hemorrhage” and the “mice survival / protection from shock” value (Balb/C mice; oral 5 mg per mouse eight hours before shock) was “fully protective effect”. The “mice serum level of AST/ALT” value (Balb/C mice; oral 5 mg, eight hours after shock) was “diminished”, the “mice serum level of TNFα” value (Balb/C mice; oral 5 mg, three hours after shock) was “did not affect” and the “solubility in aqueous solvents” value [9] was “moderate solubility”. The bioavailability (Bioavailability) was “low bioavailability”.
